Data reported in patent US6559101B2, “N- (5, 7-dimethoxy [1, 2, 4] triazolo [1, 5-a] pyrimidin-2-yl) arylsulfonamide compounds and their use as herbicides” (Dow AgroSciences LLC, priority 2000, dated 2003).

Experiments:
[1] = test system: giant foxtail (Setaria faberi); assay: Postemergence herbicidal activity; type: in vivo; conditions: scored after 2 weeks, 0 no injury, 100 complete kill
Procedure, shortened: (§1)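 Foliar spray, 1st/2nd true-leaf stage; carrier acetone/water/iPrOH/DMSO + crop oil conc. + surfactant; 1 ppm ≈ 1 g/ha. Readout: visual % injury vs untreated at 2 wk (0 = none, 100 = kill).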

[2] = test system: wild buckwheat (Polygonum convolvulus); assay: Postemergence herbicidal activity; type: in vivo; conditions: scored after 2 weeks, 0 no injury, 100 complete kill
Procedure, shortened: as §1

[3] = test system: Rox orange sorghum (Sorghum bicolor); assay: Postemergence herbicidal activity; type: in vivo; conditions: scored after 2 weeks, 0 no injury, 100 complete kill
Procedure, shortened: as §1

[4] = test system: lambsquarters (Chenopodium album); assay: Postemergence herbicidal activity; type: in vivo; conditions: scored after 2 weeks, 0 no injury, 100 complete kill
Procedure, shortened: as §1

[5] = test system: pigweed (Amaranthus retroflexus); assay: Postemergence herbicidal activity; type: in vivo; conditions: scored after 2 weeks, 0 no injury, 100 complete kill
Procedure, shortened: as §1

[6] = test system: cocklebur (Xanthium strumarium); assay: Postemergence herbicidal activity; type: in vivo; conditions: scored after 2 weeks, 0 no injury, 100 complete kill
Procedure, shortened: as §1

wild oats (Avena fatua) [7] = assay: Postemergence herbicidal activity; type: in vivo; conditions: scored after 2 weeks, 0 no injury, 100 complete kill
Procedure, shortened: as §1

[8] = test system: morningglory (Ipomoea hederacea); assay: Postemergence herbicidal activity; type: in vivo; conditions: scored after 2 weeks, 0 no injury, 100 complete kill
Procedure, shortened: as §1

[9] = test system: velvetleaf (Abutilion theophrasti); assay: Postemergence herbicidal activity; type: in vivo; conditions: scored after 2 weeks, 0 no injury, 100 complete kill
Procedure, shortened: as §1

[10] = test system: blackgrass (Alopecurus myosuroides); assay: Postemergence herbicidal activity; type: in vivo; conditions: scored after 2 weeks, 0 no injury, 100 complete kill
Procedure, shortened: as §1

[11] = test system: chickweed (Stellaria media); assay: Postemergence herbicidal activity; type: in vivo; conditions: scored after 2 weeks, 0 no injury, 100 complete kill
Procedure, shortened: as §1

viola (Viola tricolor) = assay: Postemergence herbicidal activity; type: in vivo; conditions: scored after 2 weeks, 0 no injury, 100 complete kill
Procedure, shortened: as §1

[12] = test system: giant foxtail (Setaria faberi); assay: Preemergence herbicidal activity; type: in vivo; conditions: scored after 3 weeks, 0 no injury, 100 complete kill or no germination
Procedure, shortened: (§2)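 Soil-surface application after seeding: test material dissolved in 97:3 acetone:DMSO, brought up in 99.9:0.1 water:Tween 155, sprayed at rates up to 4.48 kg/ha. Plants grew under greenhouse conditions for three weeks before percent damage was judged by eye relative to untreated plants.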

[13] = test system: Rox orange sorghum (Sorghum bicolor); assay: Preemergence herbicidal activity; type: in vivo; conditions: scored after 3 weeks, 0 no injury, 100 complete kill or no germination
Procedure, shortened: as §2

[14] = test system: lambsquarters (Chenopodium album); assay: Preemergence herbicidal activity; type: in vivo; conditions: scored after 3 weeks, 0 no injury, 100 complete kill or no germination
Procedure, shortened: as §2

[15] = test system: pigweed (Amaranthus retroflexus); assay: Preemergence herbicidal activity; type: in vivo; conditions: scored after 3 weeks, 0 no injury, 100 complete kill or no germination
Procedure, shortened: as §2

[16] = test system: cocklebur (Xanthium strumarium); assay: Preemergence herbicidal activity; type: in vivo; conditions: scored after 3 weeks, 0 no injury, 100 complete kill or no germination
Procedure, shortened: as §2

[17] = test system: crabgrass (Digitaria sanguinalis); assay: Preemergence herbicidal activity; type: in vivo; conditions: scored after 3 weeks, 0 no injury, 100 complete kill or no germination
Procedure, shortened: as §2

wild oats (Avena fatua) [18] = assay: Preemergence herbicidal activity; type: in vivo; conditions: scored after 3 weeks, 0 no injury, 100 complete kill or no germination
Procedure, shortened: as §2

[19] = test system: barnyardgrass (Echinochloa crus-galli); assay: Preemergence herbicidal activity; type: in vivo; conditions: scored after 3 weeks, 0 no injury, 100 complete kill or no germination
Procedure, shortened: as §2

[20] = test system: morningglory (Ipomoea hederacea); assay: Preemergence herbicidal activity; type: in vivo; conditions: scored after 3 weeks, 0 no injury, 100 complete kill or no germination
Procedure, shortened: as §2

[21] = test system: velvetleaf (Abutilion theophrasti); assay: Preemergence herbicidal activity; type: in vivo; conditions: scored after 3 weeks, 0 no injury, 100 complete kill or no germination
Procedure, shortened: as §2

[22] = test system: wild poinsettia (Euphorbia heterophylla); assay: Preemergence herbicidal activity; type: in vivo; conditions: scored after 3 weeks, 0 no injury, 100 complete kill or no germination
Procedure, shortened: as §2

[23] = test system: blackgrass (Alopecurus myosuroides); assay: Preemergence herbicidal activity; type: in vivo; conditions: scored after 3 weeks, 0 no injury, 100 complete kill or no germination
Procedure, shortened: as §2

COc1cc(OC)n2nc(NS(=O)(=O)c3c(C(F)(F)F)ccnc3F)nc2n1 [Compound 16]
Postemergence herbicidal activity SETFA ([1]; 125 ppm): 75%
Postemergence herbicidal activity POLCO ([2]; 125 ppm): 20%
Postemergence herbicidal activity SORBI ([3]; 125 ppm): 50%
Postemergence herbicidal activity CHEAL ([4]; 125 ppm): 40%
Postemergence herbicidal activity AMARE ([5]; 125 ppm): 75%
Postemergence herbicidal activity XANST ([6]; 125 ppm): 0%
Postemergence herbicidal activity AVEFA (wild oats (Avena fatua) [7]; 125 ppm): 50%
Postemergence herbicidal activity IPOHE ([8]; 125 ppm): 20%
Postemergence herbicidal activity ABUTH ([9]; 125 ppm): 10%
Postemergence herbicidal activity ALOMY ([10]; 125 ppm): 60%
Postemergence herbicidal activity STEME ([11]; 125 ppm): 60%
Postemergence herbicidal activity VIOTR (viola (Viola tricolor); 125 ppm): 50%
Preemergence herbicidal activity SETFA ([12]; 140 g/Ha): 10%
Preemergence herbicidal activity SORBI ([13]; 140 g/Ha): 40%
Preemergence herbicidal activity CHEAL ([14]; 140 g/Ha): 20%
Preemergence herbicidal activity AMARE ([15]; 140 g/Ha): 85%
Preemergence herbicidal activity XANST ([16]; 140 g/Ha): 40%
Preemergence herbicidal activity DIGSA ([17]; 140 g/Ha): 0%
Preemergence herbicidal activity AVEFA (wild oats (Avena fatua) [18]; 140 g/Ha): 30%
Preemergence herbicidal activity ECHCG ([19]; 140 g/Ha): 0%
Preemergence herbicidal activity IPOHE ([20]; 140 g/Ha): 0%
Preemergence herbicidal activity ABUTH ([21]; 140 g/Ha): 20%
Preemergence herbicidal activity EPHHL ([22]; 140 g/Ha): 0%
Preemergence herbicidal activity ALOMY ([23]; 140 g/Ha): 40%

COc1cc(OC)n2nc(NS(=O)(=O)c3c(I)ccnc3OC)nc2n1 [Compound 17]
Postemergence herbicidal activity SETFA ([1]; 15.6 ppm): 90%
Postemergence herbicidal activity POLCO ([2]; 15.6 ppm): 75%
Postemergence herbicidal activity SORBI ([3]; 15.6 ppm): 90%
Postemergence herbicidal activity CHEAL ([4]; 15.6 ppm): 100%
Postemergence herbicidal activity AMARE ([5]; 15.6 ppm): 100%
Postemergence herbicidal activity XANST ([6]; 15.6 ppm): 90%
Postemergence herbicidal activity AVEFA (wild oats (Avena fatua) [7]; 15.6 ppm): 90%
Postemergence herbicidal activity IPOHE ([8]; 15.6 ppm): 70%
Postemergence herbicidal activity ABUTH ([9]; 15.6 ppm): 78%
Postemergence herbicidal activity ALOMY ([10]; 15.6 ppm): 90%
Postemergence herbicidal activity STEME ([11]; 15.6 ppm): 75%
Postemergence herbicidal activity VIOTR (viola (Viola tricolor); 15.6 ppm): 98%
Preemergence herbicidal activity SETFA ([12]; 17.5 g/Ha): 100%
Preemergence herbicidal activity SORBI ([13]; 17.5 g/Ha): 99%
Preemergence herbicidal activity CHEAL ([14]; 17.5 g/Ha): 100%
Preemergence herbicidal activity AMARE ([15]; 17.5 g/Ha): 100%
Preemergence herbicidal activity XANST ([16]; 17.5 g/Ha): 65%
Preemergence herbicidal activity DIGSA ([17]; 17.5 g/Ha): 100%
Preemergence herbicidal activity AVEFA (wild oats (Avena fatua) [18]; 17.5 g/Ha): 90%
Preemergence herbicidal activity ECHCG ([19]; 17.5 g/Ha): 100%
Preemergence herbicidal activity IPOHE ([20]; 17.5 g/Ha): 60%
Preemergence herbicidal activity ABUTH ([21]; 17.5 g/Ha): 75%
Preemergence herbicidal activity EPHHL ([22]; 17.5 g/Ha): 100%
Preemergence herbicidal activity ALOMY ([23]; 17.5 g/Ha): 99%

COc1cc(OC)n2nc(NS(=O)(=O)c3c(Cl)cccc3Cl)nc2n1 [Compound 1, N-(5,7-dimethoxy[1,2,4]triazolo-[1,5-a]pyrimidin-2-yl)-2,6-dichlorobenzene-sulfonamide]
melting point: 211 to 213 °C
Postemergence herbicidal activity SETFA ([1]; 7.8 ppm): 98%
Postemergence herbicidal activity POLCO ([2]; 7.8 ppm): 95%
Postemergence herbicidal activity SORBI ([3]; 7.8 ppm): 90%
Postemergence herbicidal activity CHEAL ([4]; 7.8 ppm): 90%
Postemergence herbicidal activity AMARE ([5]; 7.8 ppm): 90%
Postemergence herbicidal activity XANST ([6]; 7.8 ppm): 85%
Postemergence herbicidal activity AVEFA (wild oats (Avena fatua) [7]; 7.8 ppm): 95%
Postemergence herbicidal activity IPOHE ([8]; 7.8 ppm): 80%
Postemergence herbicidal activity ABUTH ([9]; 7.8 ppm): 85%
Postemergence herbicidal activity ALOMY ([10]; 7.8 ppm): 90%
Postemergence herbicidal activity STEME ([11]; 7.8 ppm): 95%
Postemergence herbicidal activity VIOTR (viola (Viola tricolor); 7.8 ppm): 75%
Preemergence herbicidal activity SETFA ([12]; 17.5 g/Ha): 95%
Preemergence herbicidal activity SORBI ([13]; 17.5 g/Ha): 98%
Preemergence herbicidal activity CHEAL ([14]; 17.5 g/Ha): 98%
Preemergence herbicidal activity AMARE ([15]; 17.5 g/Ha): 100%
Preemergence herbicidal activity XANST ([16]; 17.5 g/Ha): 100%
Preemergence herbicidal activity DIGSA ([17]; 17.5 g/Ha): 98%
Preemergence herbicidal activity AVEFA (wild oats (Avena fatua) [18]; 17.5 g/Ha): 100%
Preemergence herbicidal activity ECHCG ([19]; 17.5 g/Ha): 98%
Preemergence herbicidal activity IPOHE ([20]; 17.5 g/Ha): 80%
Preemergence herbicidal activity ABUTH ([21]; 17.5 g/Ha): 99%
Preemergence herbicidal activity EPHHL ([22]; 17.5 g/Ha): 70%
Preemergence herbicidal activity ALOMY ([23]; 17.5 g/Ha): 100%

CCOc1nccc(C(F)(F)F)c1S(=O)(=O)Nc1nc2nc(OC)cc(OC)n2n1 [Compound 19]
Postemergence herbicidal activity SETFA ([1]; 15.6 ppm): 60%
Postemergence herbicidal activity POLCO ([2]; 15.6 ppm): 90%
Postemergence herbicidal activity SORBI ([3]; 15.6 ppm): 50%
Postemergence herbicidal activity CHEAL ([4]; 15.6 ppm): 95%
Postemergence herbicidal activity AMARE ([5]; 15.6 ppm): 90%
Postemergence herbicidal activity XANST ([6]; 15.6 ppm): 90%
Postemergence herbicidal activity AVEFA (wild oats (Avena fatua) [7]; 15.6 ppm): 50%
Postemergence herbicidal activity IPOHE ([8]; 15.6 ppm): 75%
Postemergence herbicidal activity ABUTH ([9]; 15.6 ppm): 75%
Postemergence herbicidal activity ALOMY ([10]; 15.6 ppm): 80%
Postemergence herbicidal activity STEME ([11]; 15.6 ppm): 95%
Postemergence herbicidal activity VIOTR (viola (Viola tricolor); 15.6 ppm): 90%
Preemergence herbicidal activity SETFA ([12]; 35 g/Ha): 30%
Preemergence herbicidal activity SORBI ([13]; 35 g/Ha): 60%
Preemergence herbicidal activity CHEAL ([14]; 35 g/Ha): 100%
Preemergence herbicidal activity AMARE ([15]; 35 g/Ha): 100%
Preemergence herbicidal activity XANST ([16]; 35 g/Ha): 85%
Preemergence herbicidal activity DIGSA ([17]; 35 g/Ha): 80%
Preemergence herbicidal activity AVEFA (wild oats (Avena fatua) [18]; 35 g/Ha): 60%
Preemergence herbicidal activity ECHCG ([19]; 35 g/Ha): 70%
Preemergence herbicidal activity IPOHE ([20]; 35 g/Ha): 50%
Preemergence herbicidal activity ABUTH ([21]; 35 g/Ha): 80%
Preemergence herbicidal activity EPHHL ([22]; 35 g/Ha): 50%
Preemergence herbicidal activity ALOMY ([23]; 35 g/Ha): 100%

COc1cc(OC)n2nc(NS(=O)(=O)c3c(OCC(F)(F)F)cccc3C(F)(F)F)nc2n1 [Compound 12]
Postemergence herbicidal activity SETFA ([1]; 62.5 ppm): 98%
Postemergence herbicidal activity POLCO ([2]; 62.5 ppm): 98%
Postemergence herbicidal activity SORBI ([3]; 62.5 ppm): 90%
Postemergence herbicidal activity CHEAL ([4]; 62.5 ppm): 100%
Postemergence herbicidal activity AMARE ([5]; 62.5 ppm): 100%
Postemergence herbicidal activity XANST ([6]; 62.5 ppm): 100%
Postemergence herbicidal activity AVEFA (wild oats (Avena fatua) [7]; 62.5 ppm): 70%
Postemergence herbicidal activity IPOHE ([8]; 62.5 ppm): 98%
Postemergence herbicidal activity ABUTH ([9]; 62.5 ppm): 98%
Postemergence herbicidal activity ALOMY ([10]; 62.5 ppm): 60%
Postemergence herbicidal activity STEME ([11]; 62.5 ppm): 90%
Postemergence herbicidal activity VIOTR (viola (Viola tricolor); 62.5 ppm): 100%
Preemergence herbicidal activity SETFA ([12]; 17.5 g/Ha): 90%
Preemergence herbicidal activity SORBI ([13]; 17.5 g/Ha): 98%
Preemergence herbicidal activity CHEAL ([14]; 17.5 g/Ha): 100%
Preemergence herbicidal activity AMARE ([15]; 17.5 g/Ha): 98%
Preemergence herbicidal activity XANST ([16]; 17.5 g/Ha): 80%
Preemergence herbicidal activity DIGSA ([17]; 17.5 g/Ha): 80%
Preemergence herbicidal activity AVEFA (wild oats (Avena fatua) [18]; 17.5 g/Ha): 30%
Preemergence herbicidal activity ECHCG ([19]; 17.5 g/Ha): 100%
Preemergence herbicidal activity IPOHE ([20]; 17.5 g/Ha): 90%
Preemergence herbicidal activity ABUTH ([21]; 17.5 g/Ha): 70%
Preemergence herbicidal activity EPHHL ([22]; 17.5 g/Ha): 90%
Preemergence herbicidal activity ALOMY ([23]; 17.5 g/Ha): 70%
